Measured values as given in patent US20110251135A1, “INHIBITORS OF PERITONEAL SEEDING OF CANCER CELLS” (University of Utah Research Foundation, priority 2008, published 2011).
“Also recorded” adds a separate entry of the source. Where a SMILES comes first, the peptide text is derived from it. The star is where a group is joined. Cbz = O=C(OCc1ccccc1)*

Key:
[1] = system: colon and pancreatic cancer cells; assay: Apoptosis of colon and pancreatic cancer cells during readhesion; assay type: cell-based, human
FLIP = FLIP expression in pancreatic and colon cancer cell lines; assay type: cell-based, human; conditions: anisomycin 1.5 and 4 hours
Method: In order to determine the role of JNK activity in FLIP downregulation, pancreatic and colon cancer cell lines were treated with anisomycin for 1.5 and 4 hours.

JNK = JNK activity (phosphorylation of c-JUN) in colon and pancreatic cancer cell lines; assay type: cell-based, human
[2] = humans; after a single or multiple oral doses; read-out: Cmax blood levels; cited from earlier work
HT-29 cells [3] = assay: Cell survival and readhesion assay (crystal violet); assay type: cell-based, human; conditions: HT-29 (overexpress PPARγ); 30 μM GW 9662
Excerpt: (§1) Untreated adherent monolayers (Control) and Jurkat cells treated with TNFα (Jurkat Control) served as controls. The cells were collected and analyzed for NF-κB activation in an ELISA (see Methods). […] The floating and readherent cells were collected and lysed. Aliquots of the cell lysates were used to generate cleaved PARP immunoblots. All lanes contain equal total protein concentrations and the actin blot served as a loading control. The blots shown are typical of duplicate experiments. […] The floating cells were washed away and the adherent cells were then fixed and stained with crystal violet. The cells were lysed in deoxycholate and the intensity of the staining quantified by spectrophotometry. The results are normalized to the controls.
(§2) FIGS. 13A-B show transiently suspended Su.86 (PPARγ-negative) and HT-29 (PPARγ-positive) cancer cells were allowed to readhere in the presence of various concentrations of ciglitazone for 8 hours. The cells were also incubated with or without the irreversible PPARγ inhibitor GW9662 during readhesion. The floating cells were washed away and the adherent cells were then fixed and stained with crystal violet. The cells were lysed in deoxycholate and the intensity of the staining quantified by spectrophotometry. The results are normalized to the controls. […]

Su.86 cells = assay: as above; assay type: cell-based, human; conditions: Su.86 (lack PPARγ); 30 μM GW 9662
Excerpt: as §1, §2

adherent HT-29 cells = assay: Annexin V-FITC apoptosis assay, adherent cells; assay type: cell-based, human; conditions: adherent HT-29; 24 hours; BAY compounds at doses up to 20, MG-132 20 μM
Excerpt: FIG. 3 is a group of graphs that show NF-κB inhibitors cause apoptosis of colon cancer cells. […] The data points represent the average percent of annexin V-positive, propidium iodide-negative cells (of the total cells counted) from triplicate experiments. The error bars represent the standard error of the means. […] The results shown are a graphic representation of individual flow cytometry results expressed as the percentage of cells that were annexin V-positive of those that excluded propidium iodide. […] An immunoblot of the lysates for cleaved PARP was performed. Each lane represents equal total protein concentrations. […] The cells were allowed to adhere to plastic dishes for 1 hour after which they were washed gently in PBS and stained with crystal violet. The crystal violet stained cells were solubilized in deoxycholate and the absorbance detected in a spectrophotometer at 590 nm. The adherent cells were expressed as a fraction of the controls. Each data point represents the average of triplicate experiments and the error bars the standard errors of the means.
The data points represent the means of triplicate experiments and the error bars the standard errors of the means. […] The percent of apoptotic cells was then determined by the annexin V assay. […] The results shown are typical of two separate experiments. […] Immunoblots were performed for c-IAP-2, TRAF-1, TRAF-2, and FLIP. All lanes contain equal total protein.
(§3) Single cell suspensions were plated at 100,000 cells per well in 24-well plates in media containing DMSO, BAY 11-7082, BAY 11-7085, or MG-132 for 8-24 hours in an incubator. Alternatively, DMSO, BAY 11-7082, BAY 11-7085, or MG-132 were added to cells that were confluent and adherent for several days. The nonadherent cells were aspirated off with the media and spun for 3 minutes at 2,000 rpm in 15 mL polypropylene tubes. The adherent cells were washed twice with PBS, dispersed in trypsin, and spun down for 3 minutes at 2,000 rpm in 15 mL polypropylene tubes. The nonadherent and adherent cells were resuspended in 1× binding buffer (10 mM HEPES/NaOH, pH 7.4, 140 mM NaCl, and 2.5 mM CaCl2) to a final concentration of 10^6 cells/mL. 100 μL of the cell solution were transferred to a 5 mL culture tube and incubated with 5 μL of annexin V-FITC-conjugated monoclonal antibody (Pharmingen) and 10 μl, of propidium iodide (from a 50 μg/mL stock solution made in PBS) in the dark at 25° C. for 15 minutes. 400 μL of binding buffer was added to each tube and the cells were analyzed by flow cytometry immediately. The percent of apoptosis was determined as the percent of annexin V-positive, propidium iodide-negative cells of the total cells counted.

HT-29 cells [4] = assay: Cleaved PARP immunoblot of adherent and nonadherent cells; assay type: cell-based, human; conditions: 20 μM MG-132 for 8 h
Method: The cells were washed twice in ice cold PBS and then lysed in 4° C. lysis buffer (50 mM HEPES, 150 mM NaCl, 1.5 mM MgCl2, 1 mM EGTA, 100 mM NaF, 10 mM Na2PO4, 1 mM Na3VO4, 10% glycerol, 1% TRITON™ X-100, and 1 μg/mL each of aprotinin, leupeptin, chymostatin, pepstatin) and clarified at 12,000 rpm at 4° C. for 15 minutes. The lysates were normalized for total protein concentration. Aliquots of the lysates were then mixed 1:1 in sample buffer (125 mM Tris-HCl (pH 6.8), 20% glycerol, 4% sodium dodecyl sulfate, 2% β-mercaptoethanol, 10 μg/mL bromophenol blue) and boiled for 3 minutes. The samples were loaded onto SDS-PAGE gels (7.5 or 10% acrylamide). The proteins were transferred to nitrocellulose from the gels and incubated in blocking buffer (1% bovine serum albumin (Bio-Rad), 100 mM Tris-Cl (pH 7.4), 0.9% NaCl, 0.1% Nonidet) overnight at 4° C.
(§4) For immunodetection, the blocked blots were probed with primary antibody for 2 hours at 4° C. on a rocker. […] Alkaline phosphatase was detected by a colorimetric reaction using a BCIP (5-bromo-4-chloro-3-indolyl phosphate)/NBT (nitroblue tetrazolium) kit (Zymed).
It was confirmed in HT-29 cells that were treated with increasing concentrations of BAY 11-7085 for 24 h. After separating the HT-29 cells that remained adherent and those that became nonadherent after BAY 11-7085 treatment, the percentage of apoptotic cells was determined for each group. […]

[5] = system: transiently suspended HT-29 cells; assay: Apoptosis of transiently suspended cells during readhesion (annexin V assay); assay type: cell-based, human; conditions: various concentrations, 4 hours; compared with BAY 11-7085
Method: HT-29 cells that were either transiently suspended with trypsin-EDTA or adherent for three days, were treated at time zero with DMSO or 10-100 μM BAY 11-7085. The percent of apoptotic cells was determined using the annexin V flow cytometry assay and graphed versus the dose of BAY 11-7085. FIG. 4B are photographs showing DLD-1, FIG. 4C are photographs showing HCT-116, and FIG. 4D are photographs showing HT-29 cells that were transiently suspended in trypsin-EDTA and allowed to readhere to glass coverslips for 1-24 hours. The cells were fixed and immunostained with an NF-κB p65 subunit monoclonal antibody.
The transiently suspended cells were lysed and allowed to bind to DNA oligonucleotides, containing the NF-κB consensus binding site, that were immobilized to 96-well plates. NF-κB protein bound to the oligonucleotides was detected by an antibody to the p65 subunit that only recognized p65 that is bound to DNA. The positive control was HeLa cells that were stimulated with TNFα. A control was performed using excess free NF-κB oligonucleotides (Competitor). […] NF-κB binding activity was determined by the TransAM assay as in FIG. 5A. […] The data shown represent typical results of three separate experiments. […] An immunoblot for COX-2 was performed.
The percentage of apoptotic cells was determined using the annexin V assay. The data points represent the averages of three experiments; bars, +−.SE. E. DLD-1 and F. HT-29 cells were transduced with an adenovirus containing the IκB super-repressor construct. After 3 days, the cells were transiently suspended and allowed to readhere in the presence of subapoptotic concentrations of BAY 11-7085 or DMSO (vehicle) for 8 hours. The data are expressed as fractions of cells surviving compared with the controls (no adenovirus) and were quantitatively determined by staining the remaining adherent cells with crystal violet.
as §3
Various concentrations of BAY 11-7085 were added to HT-29 cells that were transiently suspended in trypsin-PBS for approximately 15 minutes before replating. The transiently suspended cells were quickly allowed to readhere in order to prevent anoikis. Alternatively, BAY 11-7085 was added to adherent HT-29 cell monolayers.

HCT-116 cells = assay: Cleaved PARP immunoblot of adherent and non-adherent cells; assay type: cell-based, human; conditions: 20 μM MG-132 for 24 hours
Excerpt: FIG. 3 is a group of graphs that show NF-κB inhibitors cause apoptosis of colon cancer cells. […] The data points represent the average percent of annexin V-positive, propidium iodide-negative cells (of the total cells counted) from triplicate experiments. The error bars represent the standard error of the means. […] The results shown are a graphic representation of individual flow cytometry results expressed as the percentage of cells that were annexin V-positive of those that excluded propidium iodide. […] An immunoblot of the lysates for cleaved PARP was performed. Each lane represents equal total protein concentrations. […] The cells were allowed to adhere to plastic dishes for 1 hour after which they were washed gently in PBS and stained with crystal violet. The crystal violet stained cells were solubilized in deoxycholate and the absorbance detected in a spectrophotometer at 590 nm. The adherent cells were expressed as a fraction of the controls. Each data point represents the average of triplicate experiments and the error bars the standard errors of the means. […]
as §4

RANK = assay: NF-κB activation in colon cancer cell lines incubated with soluble RANK; assay type: cell-based, human
Excerpt: Of other members of the TNF receptor superfamily, Receptor Activator of NF-κB (RANK) is highly expressed in the digestive tract. […] Thus, RANK appears to be important in the activation of NF-κB during colon cancer cell readhesion.

COc1ccc(C[C@H]2NC[C@H](O)[C@H]2OC(C)=O)cc1 [anisomycin]
apoptosis during cell readhesion ([1]; colon and pancreatic cancer cell lines, anisomycin alone): not as effective as BAY 11-7085, anisomycin induced apoptosis
effect on pro-apoptotic activity of BAY 11-7085 ([1]; readhering colon and pancreatic cancer cells, anisomycin with BAY 11-7085): increased the pro-apoptotic activity of BAY 11-7085
FLIP expression (FLIP): caused a decrease in FLIP expression
JNK activity (phosphorylation of c-JUN) (JNK): readily induced JNK activity

CCc1ccc(CCOc2ccc(CC3SC(=O)NC3=O)cc2)nc1 (stereo not drawn) [pioglitazone]
Cmax [2]: 2500 nM

O=C(Nc1ccccc1)c1cc([N+](=O)[O-])ccc1Cl [GW9662]
effect of GW9662 on the pro-apoptotic activity of pioglitazone ([1]; cancer cell readhesion): failed to inhibit the pro-apoptotic activity of pioglitazone
effect of GW 9662 on the efficacy of ciglitazone (HT-29 cells [3]): did not significantly affect the efficacy of ciglitazone
effect of GW 9662 on the efficacy of ciglitazone (Su.86 cells): did not significantly affect the efficacy of ciglitazone

CC(C)C[C@@H](C=O)NC(=O)[C@H](CC(C)C)NC(=O)[C@H](CC(C)C)NC(=O)OCc1ccccc1 [MG-132, N-[(phenylmethoxy)carbonyl]-leucyl-N-[(1S)-1-formyl-3-methylbutyl]-L-leucinamide] (Cbz-Leu-Leu-Leu-aldehyde)
level of apoptosis (annexin V-positive, propidium iodide-negative cells) (adherent HT-29 cells): relatively greater for MG-132 than BAY 11-7085; also recorded: caused a greater increase in apoptosis
cleaved PARP in cells that remained adherent (HT-29 cells [4]): only a small increase in cleaved PARP
cleaved PARP in nonadherent cells (HT-29 cells [4]): large increase in cleaved PARP
induction of apoptosis of HT-29 cells during readhesion [5]: more potently induced apoptosis
cleaved PARP in cells that remained adherent (HCT-116 cells): only a small increase in cleaved PARP
cleaved PARP in non-adherent cells (HCT-116 cells): large increase in cleaved PARP

B1: soluble RANK: soluble Receptor Activator of NF-κB, inhibits ligand-dependent RANK activation (protein, UniProt Q9Y6Q6 30-212, looked up)
extracellular domain: IAPPCTSEKHYEHLGRCCNKCEPGKYMSSKCTTTSDSVCLPCGPDEYLDSWNEEDKCLLHKVCDTGKALVAVVAGNSTTPRRCACTAGYHWSQDCECCRRNTECAPGLGAQHPLQLNKDTVCKPCLAGYFSDAFSSTDKCRPWTNCTFLGKRVEHHGTEKSDAVCSSSLPARKPPNEPHVYLP
modifications: extracellular domain
activation of NF-κB (RANK): significantly reduced the activation of NF-κB
